Data reported in the supplement of paper PMC13380429.

How the values were obtained:
Conditions in all cases: 72 h
[1] = tested on: Caco-2; assay: cell viability relative to DMSO; higher = less toxic
[2] = tested on: Calu-3; assay: as above
[3] = tested on: HepG2; assay: as above
[4] = tested on: U2OS; assay: as above
[5] = tested on: Vero E6; assay: as above
[6] = tested on: Caco-2; assay: relative viability EC50 (midpoint between 100% and the lowest measured viability); higher = less toxic
[7] = tested on: Calu-3; assay: as above
[8] = tested on: HepG2; assay: as above
[9] = tested on: U2OS; assay: as above
[10] = tested on: Vero E6; assay: as above
[11] = tested on: Caco-2; assay: drug sensitivity score (DSS) for viability; higher = more toxic; extreme values may be limits of the assay
[12] = tested on: Calu-3; assay: as above
[13] = tested on: HepG2; assay: as above
[14] = tested on: U2OS; assay: as above
[15] = tested on: Vero E6; assay: as above

SMILES	cell viability ([1]; 1 nM)	cell viability ([1]; 10 nM)	cell viability ([1]; 100 nM)	cell viability ([1]; 1000 nM)	cell viability ([1]; 10000 nM)	cell viability ([2]; 1 nM)	cell viability ([2]; 10 nM)	cell viability ([2]; 100 nM)	cell viability ([2]; 1000 nM)	cell viability ([2]; 10000 nM)	cell viability ([3]; 1 nM)	cell viability ([3]; 10 nM)	cell viability ([3]; 100 nM)	cell viability ([3]; 1000 nM)	cell viability ([3]; 10000 nM)	cell viability ([4]; 1 nM)	cell viability ([4]; 10 nM)	cell viability ([4]; 100 nM)	cell viability ([4]; 1000 nM)	cell viability ([4]; 10000 nM)	cell viability ([5]; 1 nM)	cell viability ([5]; 10 nM)	cell viability ([5]; 100 nM)	cell viability ([5]; 1000 nM)	cell viability ([5]; 10000 nM)	relative viability EC50 [6]	relative viability EC50 [7]	relative viability EC50 [8]	relative viability EC50 [9]	relative viability EC50 [10]	drug sensitivity score [11]	drug sensitivity score [12]	drug sensitivity score [13]	drug sensitivity score [14]	drug sensitivity score [15]
Cc1c(N)c(=O)n(-c2ccccc2)n1C [ampyrone]	103%	92%	100%	96.7%	95%	138%	99.9%	98.6%	96.4%	98.6%	96.5%	110%	105%	111%	106%	97.6%	94.3%	100%	95.8%	102%	101%	104%	99.2%	95.4%	90.5%	> 10 µM	> 10 µM	> 10 µM	> 10 µM	> 10 µM	0	0	0	0	0
CCCC(CCC)C(=O)O[C@H]1C[C@H]2CC[C@@H](C1)[N+]2(C)C [anisotropine]	94.8%	95.2%	86.6%	97.8%	99.1%	94.7%	107%	93.9%	97.6%	92%	102%	96.9%	99%	90.2%	102%	101%	99%	90.3%	99.9%	90.7%	100%	96.1%	97.8%	96.6%	100%	> 10 µM	> 10 µM	> 10 µM	> 10 µM	> 10 µM	0	0	0	0	0
N#CC1(c2ccc(NC(=O)c3cccnc3NCc3ccncc3)cc2)CCCC1 [apatinib]	92.3%	94.1%	93.5%	101%	94.1%	92.9%	94.5%	104%	97.5%	104%	103%	105%	107%	89.5%	77.8%	97.4%	104%	98%	99.2%	99.6%	96.5%	92%	98.3%	97.1%	109%	> 10 µM	> 10 µM	> 10 µM	> 10 µM	> 10 µM	0	0	1.9	0	0
CC[C@@H]1/C=C(\C)C[C@H](C)C[C@H](OC)[C@H]2O[C@@](O)(C(=O)C(=O)N3CCCC[C@H]3C(=O)O[C@H](/C(C)=C/[C@@H]3CC[C@@H](O)[C@H](OC)C3)[C@H](C)[C@@H](O)CC1=O)[C@H](C)C[C@@H]2OC [ascomycin]	117%	97.8%	95%	100%	84.5%	98.3%	98.9%	90.8%	107%	107%	124%	109%	112%	96%	104%	96%	104%	97.8%	98.4%	95.2%	107%	100%	98.1%	93.5%	102%	> 10 µM	> 10 µM	> 10 µM	> 10 µM	> 10 µM	0.2	0	0	0	0
CCCCCCCCCCCCCCCCCCN(CCCCCCCCCCCCCCCCCC)CCCN(CCO)CCO [avridine]	106%	97%	90.4%	105%	146%	91.5%	101%	101%	95.7%	108%	109%	98.1%	98%	106%	108%	95.7%	101%	98.9%	104%	100%	104%	101%	106%	98.5%	102%	> 10 µM	> 10 µM	> 10 µM	> 10 µM	> 10 µM	0	0	0	0	0
CCC1(C)CC(=O)NC(=O)C1 [bemegride]	102%	90.1%	90.8%	94.8%	98.8%	92.2%	114%	101%	105%	98.1%	102%	101%	108%	90.8%	112%	100%	96.6%	98.6%	99.8%	102%	98.2%	102%	94.6%	99.1%	112%	> 10 µM	> 10 µM	> 10 µM	> 10 µM	> 10 µM	0	0	0	0	0
O=C(O)Cc1ccc(OCc2ccccc2)c(Cl)c1 [benzofenac]	96.9%	114%	112%	104%	107%	97.6%	109%	98.9%	111%	93.4%	98.5%	92.7%	94.3%	87.1%	93.8%	98.2%	98.2%	99.3%	100%	94.4%	103%	105%	106%	99.6%	96.1%	> 10 µM	> 10 µM	> 10 µM	> 10 µM	> 10 µM	0	0	0	0	0
O=C(OOC(=O)c1ccccc1)c1ccccc1 [benzoyl-peroxide]	102%	87.9%	96.6%	91.2%	99.4%	99%	95.8%	103%	99%	103%	92.1%	104%	99.1%	110%	107%	98%	95.2%	99.3%	97.6%	94.1%	95.6%	98.8%	92%	95%	105%	> 10 µM	> 10 µM	> 10 µM	> 10 µM	> 10 µM	0	0	0	0	0
CCCCCCCCCCCCCCCC[N+](C)(C)Cc1ccccc1 [benzyldimethylhexadecylammonium]	93.9%	96.1%	91.9%	89.4%	18%	94.9%	105%	105%	102%	41.2%	113%	101%	102%	93.7%	30.6%	99.6%	101%	102%	102%	14.1%	99%	94.6%	100%	94.5%	92.8%	2.12 µM	3.39 µM	2.41 µM	3.28 µM	> 10 µM	6.3	3	4.8	4.6	0
CN(C)CCC(c1ccc(Br)cc1)c1ccccn1 (stereo not given) [brompheniramine]	92.3%	75.3%	96.6%	101%	96.2%	94.9%	99.5%	96.6%	94.5%	88.9%	99.3%	98.5%	96.4%	93.7%	88.1%	106%	101%	102%	97.6%	102%	98.8%	102%	100%	105%	94.9%	> 10 µM	> 10 µM	> 10 µM	> 10 µM	> 10 µM	0	0	0	0	0
O=C(O)C1(C(=O)O)CCC1.[NH2-].[NH2-].[Pt+2] [carboplatin]	97.8%	102%	85.4%	94.9%	100%	90.8%	98.8%	93.6%	90.7%	106%	106%	98.7%	99.5%	90.7%	103%	94.3%	95.9%	93.2%	100%	108%	99.6%	92.5%	103%	98.4%	109%	> 10 µM	> 10 µM	> 10 µM	> 10 µM	> 10 µM	0	0	0	0	0
